Test results published in patent US5789395A, “Method of using tetracycline compounds for inhibition of endogenous nitric oxide production” (The Research Foundation of State University of New York, priority 1996, dated 1998).

Key:
renal mesangial cells = experiment: NO production by IFN-γ/LPS-stimulated renal mesangial cells (Greiss reaction); format: cell-based, rat; conditions: for inhibition of NO production, time course: 24-72 hr; for Emax at 5 µg/mL: Rattus norvegicus, Mesangial cell, 5 μg/mL, 48 hr, P<0.01, read-out: inhibition of NO production, maximal effect
Description: The use of IFN-γ to induce renal injury is a model of glomerulonephritis known in the art. Glomerulonephritis is characterized by increased production of NO.

collagenase = conditions: cited from earlier work
iNOS [1] = experiment: iNOS activity (L-arginine-to-L-citrulline) in cell-free extracts of cells treated with modulator before LPS; format: cell-based, murine; conditions: positive control
Description: Murine macrophage cells (RAW 264.7) were incubated with 20-80 μg/mL doxycycline or minocycline, 10 μM hydrocortisone (Sigma Chemical Co., St. Louis, Mo.), or 75 μM L-NMMA for 1-2 h, followed by addition of LPS at 100 ng/mL and incubation for 16-18 h. Cell-free extracts were prepared at the end of each time period. Specific activity of iNOS was determined in the cell-free extracts by monitoring the conversion of L-[^3 H]-arginine to L-[^3 H]-citrulline as described by Amin et al. (1995b) and Vyas et al. (1996).
Cell-free extracts were prepared as follows: Following induction by incubation with LPS, the cells were pelleted at 4° C. and resuspended in Tris buffer (10 mM, pH 7.4) containing 10 μg/mL each chymostatin, antipain, leupeptin and pepstatin, 1 mM DTT and 1 mM PMSF. Cells were lysed in a Polytron PT 1200 homogenizer (Kinematica AG, Switzerland) after 3 cycles of rapid freeze-thawing. The lysate was centrifuged at 16,000 rpm for 60 min at 4° C., and the supernatants were used as cell-free extracts.
The protein in the extracts was measured by BCA assay reagent using BSA as standard (Smith et al. 1985). The reaction mixture for iNOS assay consists of Tris 50 mM (pH 7.8); BSA 1 mg/mL; DTT 1 mM; CaCl2, 2 mM; FAD 10 μM; BH4 10,μM; L-arginine 30 μM; NADPH 1 mM. The reaction mixture was spiked with 1μL (250 nM) of L-[^3 H]-arginine (Dupont NEN, Boston, Mass.) (1 mCi/mL=37.0 MBq/mL). After 20 min the assays were terminated by heating the reaction mixture at 90° C. for 5 min. Ten microiters (≈100,000 cpm) of the supernatant was spotted on activated AVICEL TLC plates (Analtech, Newark, Del.). The TLC plates were developed in a solvent system consisting of ethanol:water:ammonia (80:16:4). Quantitation of the spot for L-[^3 H]-citrulline was performed by a Bioscan System 200 Imaging Scanner.

NOS = conditions: competitive inhibitor; cited from earlier work
iNOS [2] = conditions: in vitro; Amin et al. 1995b; cited from earlier work
[3] = test system: iNOS expression in mesangial cells; conditions: Pfeilschifter et al. (1995); cited from earlier work
133 kD iNOS = experiment: iNOS protein expression in LPS-activated RAW 264.7 cells (Western blot); format: cell-based, murine; conditions: 10 μM, positive control
Description: RAW 264.7 cells were activated with 100 ng/mL LPS for 16-18 h, with and without doxycycline or minocycline (20-80 μg/mL) or with hydrocortisone (10 μM). Cell-free extracts were prepared as described above. The extract s were analyzed for 133 kD iNOS by Western blotting, using specific anti-iNOS antibodies.
Equal amounts of protein (25-50 μg) estimated by BCA reagent (Pierce, Rockford, Ill.) were loaded onto SDS-PAGE gels and stained to verify the concentrations of various protein fractions by examining the intensities of the protein bands on the gels. Western blot analysis was carried out from the same cell extracts. The Western-blotted membrane was probed with a specific anti-murine iNOS monoclonal antibody (Transduction Laboratories, Lexington, Ky.), as specified by the supplier. The same blot was also probed with an anti-actin antibody generously provided by Dr. James L. Lessard (Children's Hospital Medical Center, Cincinnati, Ohio). The blots were developed using the ECL Western blot system (Amersham, Arlington Heights, Ill.). Quantitation of the bands was performed using a densitometer from Molecular Dynamics (Sunnyvale, Calif.). FIG. 5 is representative.

iNOS mRNA [4] = experiment: iNOS mRNA expression in LPS-stimulated RAW 264.7 cells (RT-PCR); format: cell-based, murine; conditions: Mus musculus, RAW264.7, read-out: decrease of iNOS mRNA
Description: Doxycycline and minocycline may suppress iNOS before the synthesis of the enzyme, leading to inhibition of iNOS protein expression, specific activity and accumulation of nitrite. […] Therefore, to determine the level at which tetracycline inhibited iNOS protein expression, RAW 264.7 cells treated with LPS in the presence or absence of doxycycline and minocycline were analyzed for iNOS mRNA by semi-quantitative RT-PCR.
The presence of iNOS and β-actin mRNA in cells was analyzed by reverse transcription (RT) of total RNA followed by PCR amplification of the cDNA. The sense and antisense oligonucleotides for iNOS were, respectively, 5'-ACGGAGAAGCTTAGATCTGGAGCAGAAGTG-3'(142 to 171) (SEQ ID NO:1) and 5'-CTGCAGGTTGGACCACTGGATCCTGCCGAT-3' (767 to 796) (SEQ ID NO:2). The sense and antisense primers for β-actin were 5'-TCCTTCGTTGCCGGTCCACA-3' (44 to 63) (SEQ ID NO:3) and 5'-CGTCTCCGGAGTCCATCACA-3' (534 to 552) (SEQ ID NO:4), respectively. The predicted PCR product of the iNOS cDNA was 654 bp; that of the β-actin cDNA was 508 bp. The polymerase chain reaction was carried out in an automated DNA thermal cycle (Perkin-Elmer Cetus, Norwalk, Conn.). The total RNA was extracted using TRI-Reagent (MRC Inc., Cincinnati, Ohio). The cDNA was prepared from equal amounts (1-5 μg) of total RNA using a SuperScript™ RNase H Reverse Transcriptase (Gibco BRL, Gaithersburg, Md.). An equal amount of the cDNA was used to amplify the mRNA by PCR. PCR amplification was performed in 50 μL solution containing 1.5 mM MgCl2, 500 ng iNOS primer, 100 ng β-actin primer, 0.2 mM of each dNTP, 2.5 units of Taq DNA polymerase (Gibco). The cycle conditions for amplification of cDNA were 1 min at 94° C., 1-2 min at 55° C. and 3 min at 72° C. for 30 cycles for both iNOS and β-actin. The PCR product was analyzed by electrophoresis on 1.0% agarose gels.
RT-PCR analysis of iNOS and βactin mRNA expression in RAW 264.7 cells was carried out after stimulation with LPS±doxycycline or minocycline. […] Equal amounts of RNA were analyzed for iNOS and β-actin expression as described above.

iNOS mRNA [5] = experiment: iNOS mRNA expression in LPS-stimulated RAW cells (Northern blot); format: cell-based, murine; conditions: Mus musculus
Description: Northern blot analysis of the iNOS MRNA expressed by the cells was then carried out to evaluate precisely the effect of iNOS expression in the presence of doxycycline and minocycline. The probes again were the iNOS and β-actin CDNA probes described above.
In this case, total RNA was isolated using TRI Reagent (MRC Inc., Cincinnati, Ohio). […] Briefly, 30 μg of RNA was subjected to electrophoresis in 1% agarose formaldehyde gel. The gel was then transferred via capillary action onto a nylon membrane (Zeta Probe, Bio-Rad Laboratories, Melville, N.Y.). The membrane was hybridized with [^32 P]-dCTP-labeled iNOS CDNA (4 kb SmaI fragment), a kind gift from Dr. James Cunningham (Harvard Medical School, Boston, Mass.). After hybridization, the blot was exposed to Kodak X-ray film (Kodak, Rochester, N.Y.) for 24-48 h with intensifying screens at -70° C. The β-actin probe was purchased from ClonTech (Palo Alto, Calif.) and probed as described above. Quantitation of the intensity of the iNOS/β-actin bands was performed using a phosphoimager (Molecular Dynamics, Sunnyvale, Calif.).

[6] = test system: iNOS expression in macrophages; conditions: Nathan et al. 1994, Vodovotz et al. 1993; cited from earlier work

In the case of `CC1(O)c2cccc(O)c2C(=O)C2=C(O)C3(O)C(=O)C(C(N)=O)=C(O)CC3CC21` (centres unmarked) [CMT-1, 4-dedimethylaminotetracycline], the “NO production (% of control)” value (renal mesangial cells; 10 μg/mL, after 48 hr) is given as ~ 60 % of control and the anti-collagenase activity (collagenase) is given as “modest anti-collagenase activity”.
For `NC(=O)C1=C(O)C2(O)C(=O)C3=C(O)c4c(O)cccc4CC3CC2CC1=O` (centres unmarked) [CMT-3, 6-demethyl-6-deoxy-4-dedimethylaminotetracycline], the “inhibition of NO production, time course” value (renal mesangial cells) is listed as “time-dependent inhibition of NO production”, the Emax at 5 µg/mL (renal mesangial cells) is listed as greater than 80% and the anti-collagenase activity (collagenase) is listed as “high level of anti-collagenase activity”.
In the case of `C[C@H]1c2cccc(O)c2C(O)=C2C(=O)[C@]3(O)C(O)=C(C(N)=O)C(=O)C[C@@H]3[C@@H](O)[C@@H]21` [CMT-8, 6-α-deoxy-5-hydroxy-4-dedimethylaminotetracycline], the “inhibition of NO production, time course” value (renal mesangial cells) is listed as “time-dependent inhibition of NO production”, the Emax at 5 µg/mL (renal mesangial cells) is listed as greater than 80% and the anti-collagenase activity (collagenase) is listed as “high level of anti-collagenase activity”.
For `CN=C(N)NCCC[C@H](N)C(=O)O` [L-NMMA], the “inhibition of iNOS activity” value (iNOS [1]; 75 μM) is given as 64% and the “inhibition of NOS activity” value (NOS) is given as greater than 95%.
For `CC(=O)n1ccnc1` [N-acetyl imidazole, N-acetylimidazole], the “inhibition of iNOS catalytic activity” value (iNOS [2]) is listed as “inhibit iNOS catalytic activity in vitro”.
In the case of `CC(=O)Oc1ccccc1C(=O)O` [aspirin], the “inhibition of iNOS catalytic activity” value (iNOS [2]) is listed as “inhibit iNOS catalytic activity in vitro”.
In the case of `C[C@@H]1C[C@H]2[C@@H]3CCC4=CC(=O)C=C[C@]4(C)[C@@]3(F)[C@@H](O)C[C@]2(C)[C@@]1(O)C(=O)CO` [dexamethasone], the “suppression of IL-1β-induced iNOS expression” value [3] is given as “acts at multiple levels (including transcription of iNOS) to suppress IL-1β-induced iNOS expression”.
With `C[C@]12CCC(=O)C=C1CC[C@@H]1[C@@H]2[C@@H](O)C[C@@]2(C)[C@H]1CC[C@]2(O)C(=O)CO` [hydrocortisone] the “inhibition of iNOS activity” value (iNOS [1]; 10 μM) was 60%, the “inhibition of iNOS protein expression” value (133 kD iNOS) was 43% and the inhibition at 10 µM (iNOS mRNA [4]) was 50 to 100%. For the same compound, the inhibition at 10 µM (iNOS mRNA [5]; read-out: inhibition of iNOS mRNA expression, 10 μM, doxycycline experiment (FIG. 6C)) was 73%, the inhibition at 10 µM (iNOS mRNA [5]; read-out: inhibition of iNOS mRNA expression, 10 μM, minocycline experiment (FIG. 6D)) was 76% and the “suppression of iNOS expression” value [6] was “suppress iNOS expression by decreasing mRNA expression”.
In the case of “TGF-β1: suppresses iNOS expression in macrophages”, the “suppression of iNOS expression” value [6] is listed as “suppress iNOS expression by decreasing mRNA expression”.
